For one compound, inhibition results are on record in ChEMBL document CHEMBL2176873, “α-1-C-butyl-1,4-dideoxy-1,4-imino-l-arabinitol as a second-generation iminosugar-based oral α-glucosidase inhibitor for improving postprandial hyperglycemia” (J Med Chem, 2012).

The target of test [1] is T1, Uncharacterized protein (Sus scrofa) (UniProt I3LIR5).
T1 sequence (whole entry): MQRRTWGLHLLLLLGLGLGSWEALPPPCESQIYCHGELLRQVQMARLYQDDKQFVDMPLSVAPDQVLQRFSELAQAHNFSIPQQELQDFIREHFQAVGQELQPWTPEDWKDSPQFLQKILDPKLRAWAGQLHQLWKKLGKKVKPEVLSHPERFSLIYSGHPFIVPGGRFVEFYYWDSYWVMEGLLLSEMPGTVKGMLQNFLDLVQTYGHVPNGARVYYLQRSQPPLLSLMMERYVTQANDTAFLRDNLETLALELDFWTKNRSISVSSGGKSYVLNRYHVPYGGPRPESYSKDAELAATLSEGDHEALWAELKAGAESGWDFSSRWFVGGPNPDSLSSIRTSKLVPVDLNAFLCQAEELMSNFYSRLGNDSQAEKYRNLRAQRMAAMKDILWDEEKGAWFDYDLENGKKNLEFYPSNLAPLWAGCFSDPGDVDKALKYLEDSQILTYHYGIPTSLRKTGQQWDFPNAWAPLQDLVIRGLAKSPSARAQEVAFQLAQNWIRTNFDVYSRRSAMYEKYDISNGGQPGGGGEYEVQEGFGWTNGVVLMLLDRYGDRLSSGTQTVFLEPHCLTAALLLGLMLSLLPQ
Nature of the test: Inhibition of porcine kidney trehalase at 1000 uM.

Test [2] concerns the target T2, Lysosomal acid glucosylceramidase (Homo sapiens) (UniProt P04062).
T2 sequence (whole entry): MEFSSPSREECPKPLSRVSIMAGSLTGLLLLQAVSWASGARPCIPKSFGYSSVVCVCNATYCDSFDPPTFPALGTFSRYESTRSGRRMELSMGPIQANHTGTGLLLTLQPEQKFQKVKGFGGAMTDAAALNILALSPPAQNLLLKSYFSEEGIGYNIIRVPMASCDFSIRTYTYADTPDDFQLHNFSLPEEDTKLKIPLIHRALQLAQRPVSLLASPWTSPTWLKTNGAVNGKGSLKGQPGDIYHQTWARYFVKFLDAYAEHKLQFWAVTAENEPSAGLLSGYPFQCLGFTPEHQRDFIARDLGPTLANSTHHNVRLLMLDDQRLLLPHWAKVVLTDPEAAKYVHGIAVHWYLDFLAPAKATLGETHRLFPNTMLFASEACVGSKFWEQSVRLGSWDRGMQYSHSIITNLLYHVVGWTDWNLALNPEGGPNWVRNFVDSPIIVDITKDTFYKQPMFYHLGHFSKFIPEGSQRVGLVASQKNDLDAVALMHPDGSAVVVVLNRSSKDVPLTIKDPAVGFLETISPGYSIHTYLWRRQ
Nature of the test: Inhibition of human beta-glucocerebrosidase at 1000 uM.

A value given as a limit tells only on which side of the number the result lay.

Usually inhibition stands for the percentage by which the read-out fell short of the control. Low readings indicate a response near the control, high ones a response far below the control. On to `CCCC[C@@H]1N[C@@H](CO)[C@H](O)[C@H]1O`, for which the inhibition in test [1] and in test [2] was under 50% in each case.
